Results on five compounds are retold here after US11701362B2, “Compositions and methods of use of cis-4-[2-{[(3S,4R)-3-fluorooxan-4-yl]amino}-8-(2,4,6-trichloroanilino)-9H-purin-9-yl]-1- methylcyclohexane-1-carboxamide” (Celgene Corporation, priority 2017, dated 2023).

Values after ≈ are worked out from the molar mass of the structure shown. Counter-ions that a name gives are not always drawn.

What all share (type): physicochemical
Data set [1] can be described thus: pKa determination. As to the method: (§1) Solubility Study: Compound 1 free base pKa was determined to be 5.14. […] Solubility in the preclinical formulation, 0.5% CMC/0.25% Tween 80, was determined to be 0.18 mg/ml at pH 8.1.
The nature of data set [2]: Solution and suspension stability. Particulars: 37° C. As to the method: The solution stability of Compound 1 free base in water, SGF (pH 1.3), SIF (pH 7.5), and 0.1N NaOH with and without light protection at 37° C. was tested.
Data set [3] can be described thus: Solid state chemical and physical stability of free base monohydrate. How it is done:
Chemical Stability Study: Solid state stability of Compound 1 free base monohydrate was evaluated at 80° C. for 2 weeks and 40° C./75% RH, 50° C./75% RH and 60° C. for up to 5 weeks.
This dehydrate form converted back to monohydrate immediately when samples were exposed to room temperature and RH>30%. If RH is in the range of 5-30%, the dehydrate form may take 1-3 days to convert back to monohydrate.

A short description of data set [4]: Dissolution of drug in capsule in 0.01N HCl and 0.001N HCl at 37° C. Particulars: for Compound 1 released: 125 mg capsule, 37° C., 60 minutes. How it is done:
To assess the feasibility of using Compound 1 in a capsule to support FIH study, a dissolution study with a capsule containing 125 mg Compound 1 free base monohydrate was performed in the media of 0.01N HCl and 0.001N HCl at 37° C. Capsule shell shrinkage was observed. […] Blend in capsule or other formulation approaches may be necessary.
A dissolution study for citrate salt in a capsule in 0.01N HCl was also carried out.

Data set [5] can be described thus: Solubility study (water, SGF, SIF, preclinical vehicle, bio-relevant media). The conditions noted are these: for Solubility, Concentration: at 24 hours. As to the method:
as §1

Data set [6] in a line: Solubility of Compound 1 citrate in pH 6.5 phosphate buffer with SLS. As to the method:
Solubility of Compound 1 was determined in various percentages of sodium lauryl sulfate (SLS). 0.03% SLS was selected as the media for dissolution condition 3. Samples were filtered using a 0.2 μm nylon syringe filter, and analyzed by UPLC-UV utilizing the method parameters listed in Table 9.

Data set [7] can be described thus: Bulk and tap density and flow properties (Carr's Index, Hausner's Ratio). How it is done: Needle-like particle shapes have poor powder flow and low densities. […] Reduced drug loadings (dilution of the poor flow component) improved flow characteristics of the resultant blend.
The 5 formulations covered drug loadings of 1.8-23.0% and 1-25 mg strengths. The bulk and tap densities for each formulation are included in Table 30.
Flow property scales for Carr's (Compressibility) Index and Hausner's Ratio are described in Table 37. The flow of the blends was assessed as very poor to passible.

The nature of data set [8]: Tablet dissolution in pH 2 phosphate buffer and pH 5 phosphate buffer with 0.1% sodium laureth sulfate. Particulars: tablets, pH 5 phosphate buffer and 0.1% sodium laureth sulfate.

By pKa is commonly meant the pH at which an ionisable group is half protonated. A high value points to a group that holds its proton tightly. In turn, `C[C@]1(C(N)=O)CC[C@@H](n2c(Nc3c(Cl)cc(Cl)cc3Cl)nc3cnc(N[C@@H]4CCOC[C@H]4F)nc32)CC1` (relative stereo) [Compound 1 free base, cis-4-[2-{[(3S,4R)-3-fluorooxan-4-yl]amino}-8-(2,4,6-trichloroanilino)-9H-purin-9-yl]-1-methylcyclohexane-1-carboxamide] came in with a pKa in data set [1] of 5.14. In addition, the “solution stability, remaining” value in data set [2] (0.1N NaOH without light protection, day 1) is 88%; in data set [2] (0.1N NaOH without light protection, day 4) it was 61%; in data set [2] (water, SGF (pH 1.3), SIF (pH 7.5), 0.1N NaOH, 4 days, all except 0.1N NaOH without light protection) it was > 95%.

Regarding `C[C@]1(C(N)=O)CC[C@@H](n2c(Nc3c(Cl)cc(Cl)cc3Cl)nc3cnc(N[C@@H]4CCOC[C@H]4F)nc32)CC1` (relative stereo) [Compound 1 free base monohydrate, cis-4-[2-{[(3S,4R)-3-fluorooxan-4-yl]amino}-8-(2,4,6-trichloroanilino)-9H-purin-9-yl]-1-methylcyclohexane-1-carboxamide], the “solid state chemical stability” value in data set [3] (80° C. for 2 weeks, 40° C./75% RH, 50° C./75% RH and 60° C. up to 5 weeks) is on record as “chemically relatively stable”. For the same compound, the “time for the dehydrate form to convert back to monohydrate” value in data set [3] (RH in the range of 5-30%) is 1 to 3 days. The physical stability entry in data set [3] (heated at 60 and 80° C.) is “lost water and converted to a dehydrate form”. Moreover, the “Compound 1 released” value is given as 10% in data set [4] (0.001N HCl) and “About 80%” in data set [4] (0.01N HCl). For the same compound, the “Solubility, Concentration” value was found to be 2810 µg/mL in data set [5] (FaSSGF), 260 µg/mL in data set [5] (FaSSIF), 4 µg/mL in data set [5] (FeSSGF) and 2070 µg/mL in data set [5] (FeSSIF). The “pH @ 24 hr” value in data set [5] (solubility sample in FaSSGF) worked out at 1.84; in data set [5] (solubility sample in FaSSIF) it was 6.48; in data set [5] (solubility sample in FeSSGF), 6.31; in data set [5] (solubility sample in FeSSIF), 4.94.

For the compound `C[C@]1(C(N)=O)CC[C@@H](n2c(Nc3c(Cl)cc(Cl)cc3Cl)nc3cnc(N[C@@H]4CCOC[C@H]4F)nc32)CC1` (relative stereo) [Compound 1 citrate, cis-4-[2-{[(3S,4R)-3-fluorooxan-4-yl]amino}-8-(2,4,6-trichloroanilino)-9H-purin-9-yl]-1-methylcyclohexane-1-carboxamide], the solubility in data set [6] (0.01% SLS) was found to be 0.000 mg salt/mL; in data set [6] (0.02% SLS) it was 0.001 mg salt/mL; in data set [6] (0.03% SLS) it was 0.054 mg salt/mL; in data set [6] (0.05% SLS) it was 0.336 mg salt/mL; in data set [6] (0.1% SLS), 0.807 mg salt/mL. The “dissolution profile compared to freebase monohydrate” value in data set [4] (capsule in 0.01N HCl) is listed as “better dissolution profile”.

With `C[C@]1(C(N)=O)CC[C@@H](n2c(Nc3c(Cl)cc(Cl)cc3Cl)nc3cnc(N[C@@H]4CCOC[C@H]4F)nc32)CC1` [Compound 1, cis-4-[2-{[(3S,4R)-3-fluorooxan-4-yl]amino}-8-(2,4,6-trichloroanilino)-9H-purin-9-yl]-1-methylcyclohexane-1-carboxamide], in data set [7], the “Bulk Density” value is 0.2 g/mL. In data set [7], the “Tap Density” value worked out at 0.38 g/mL. The solubility in data set [5] (0.5% CMC/0.25% Tween 80 (preclinical formulation), aqueous with cosolvent or surfactant or cyclodextrin, preclinical formulation 0.5% CMC/0.25% Tween 80, pH 8.1, read-out: solubility) is 180 µg/mL (≈ 315 µM); in data set [5] (pH 4.5, aqueous buffer, read-out: solubility), ~250 µg/mL (≈ 438 µM); in data set [5] (simulated gastric fluid (SGF), simulated gastric fluid, simulated gastric fluids (SGF) (pH 1.9), read-out: solubility) it was 3500 µg/mL (≈ 6130 µM); in data set [5] (simulated gastric fluid, low pH (0.1 N HCl), read-out: solubility), ~1700 µg/mL (≈ 2980 µM); in data set [5] (simulated intestinal fluid (SIF), pH 7.3, fassgf or other biorelevant, read-out: solubility) it was 2 µg/mL (≈ 3.5 µM); in data set [5] (simulated intestinal fluids (SIF) (pH 7.3)), 2 µg/mL (≈ 3.5 µM). In addition, the solubility in data set [5] (water (pH 8.1), read-out: solubility) was 3 µg/mL (≈ 5.26 µM). The pKa in data set [1] is ~5.1.

With `C[C@]1(C(N)=O)CC[C@@H](n2c(Nc3c(Cl)cc(Cl)cc3Cl)nc3cnc(N[C@@H]4CCOC[C@H]4F)nc32)CC1` (relative stereo) [HCl salt of Compound 1, cis-4-[2-{[(3S,4R)-3-fluorooxan-4-yl]amino}-8-(2,4,6-trichloroanilino)-9H-purin-9-yl]-1-methylcyclohexane-1-carboxamide], the “dissolution compared with free base and citrate salt” value in data set [8] was “higher dissolution”.
